We go through 19 compounds from PubChem BioAssay (NCI).

Molecules are shown by their SMILES. Values joined by “and” are separate entries in the source; they are usually repeats but may differ in a detail not shown here. Equal entries are not always repeated.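 The compound was tested at five concentrations on cells cultured in 96-well plates, with a 48-hour exposure period. Abbreviation: GI50, concentration required for 50% inhibition of growth. Definition used: TGI = concentration required for complete inhibition of growth.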

Some test systems named below: A549 NSCLC; ACHN renal; SK-MEL-2 melanoma; HT29 colon; SK-OV-3 ovarian; NCI-H522 lung; TK-10 renal; SNB-75 CNS; OVCAR-5 ovarian; UO-31 renal.
Holding throughout (assay): NCI anticancer screen, dose series, 48 h

On to `COc1cc2c(cc1OC)C1(COc3cc(O)c(O)c(O)c3C1=O)C2` (configuration not stated), for which the TGI in the experiment with A549 NSCLC, in the experiment on ACHN renal, in the experiment on SK-MEL-2 melanoma, in the experiment with HT29 colon, in the experiment on SK-OV-3 ovarian and in the experiment on NCI-H522 lung was more than 50 µM in each case. In addition, the TGI in the experiment on TK-10 renal, with SNB-75 CNS, with OVCAR-5 ovarian and in the experiment with UO-31 renal was more than 50 µM throughout.
`O=C(O)Cc1ccc2[nH]c(O)c(C3=Nc4ccccc4C3=O)c2c1`: the TGI with A549 NSCLC was more than 100 µM; in the experiment with ACHN renal, more than 100 µM; in the experiment on SK-MEL-2 melanoma it was more than 100 µM; in the experiment on HT29 colon it was more than 100 µM; in the experiment on SK-OV-3 ovarian, 94.8 µM; with NCI-H522 lung it was more than 100 µM. Further, the TGI in the experiment on TK-10 renal, with SNB-75 CNS, in the experiment with OVCAR-5 ovarian and in the experiment on UO-31 renal was more than 100 µM each time.
As for `FC1C2=C(SC1(F)F)C1CCC2C1` (configuration not stated), the TGI in the experiment with A549 NSCLC, in the experiment on ACHN renal, with SK-MEL-2 melanoma, in the experiment with HT29 colon, in the experiment on SK-OV-3 ovarian and in the experiment on NCI-H522 lung was more than 100 µM throughout. For the same compound, the TGI in the experiment on TK-10 renal, in the experiment on SNB-75 CNS, in the experiment on OVCAR-5 ovarian and with UO-31 renal was more than 100 µM each time.
With `Cc1csc(/N=C\c2c(O)c3ccccc3oc2=O)n1`, the TGI with A549 NSCLC is more than 100 µM; in the experiment with ACHN renal, more than 100 µM; in the experiment on SK-MEL-2 melanoma, 49.5 µM; in the experiment on HT29 colon, more than 100 µM; with SK-OV-3 ovarian, 45.6 µM; in the experiment with NCI-H522 lung it was more than 100 µM. In addition, the TGI in the experiment with TK-10 renal is 77.8 µM; with SNB-75 CNS it was 65.1 µM; with OVCAR-5 ovarian it was more than 100 µM; in the experiment with UO-31 renal it was 75.9 µM.
For `Cc1c2c(OCCN3CCCCC3)nn(C)c(=O)c2c(C)n1-c1ccccc1`, the TGI in the experiment on A549 NSCLC is more than 100 µM; with ACHN renal, more than 100 µM; with SK-MEL-2 melanoma it was 33.1 µM; in the experiment on HT29 colon, more than 100 µM; in the experiment with SK-OV-3 ovarian it was more than 100 µM; in the experiment with NCI-H522 lung, 84.1 µM. The TGI in the experiment with TK-10 renal is more than 100 µM; with SNB-75 CNS, more than 100 µM; in the experiment with OVCAR-5 ovarian it was more than 100 µM; with UO-31 renal, 29.1 µM.
As to `COc1cc2c(=O)cnoc2cc1O`, the TGI with A549 NSCLC, in the experiment with ACHN renal, in the experiment with SK-MEL-2 melanoma, with HT29 colon, in the experiment with SK-OV-3 ovarian and with NCI-H522 lung was more than 100 µM each time. Besides, the TGI with TK-10 renal, in the experiment with SNB-75 CNS, with OVCAR-5 ovarian and with UO-31 renal was more than 100 µM in each case.
Turning to `C=C1C(=O)O[C@@H]2C[C@]3(C)CC[C@]4(C)[C@H](CC[C@@H]5[C@@]6(C)CCC(=O)C(C)(C)[C@@H]6CC[C@]54C)[C@H]3[C@H]12`, the TGI in the experiment with A549 NSCLC is 46.9 µM; in the experiment with ACHN renal, 24.2 µM; in the experiment with SK-MEL-2 melanoma, 47.7 µM; in the experiment with HT29 colon, more than 56.7 µM; in the experiment on SK-OV-3 ovarian it was 44.1 µM; in the experiment on NCI-H522 lung it was 23.2 µM. Further, the TGI came out at 30.3 µM in the experiment with TK-10 renal, 43.9 µM in the experiment with SNB-75 CNS, 32.8 µM in the experiment on OVCAR-5 ovarian and 28.3 µM in the experiment on UO-31 renal.
Regarding `CN(C)CCCn1nc(N)c2nc3cc(Cl)ccc3nc21`, the TGI in the experiment with A549 NSCLC was more than 100 µM; in the experiment with ACHN renal it was more than 100 µM; in the experiment on SK-MEL-2 melanoma it was more than 75.7 µM; in the experiment on HT29 colon, more than 100 µM; in the experiment on SK-OV-3 ovarian, more than 100 µM; in the experiment on NCI-H522 lung, more than 100 µM. Moreover, the TGI with TK-10 renal is more than 100 µM; in the experiment with SNB-75 CNS, more than 100 µM; in the experiment with OVCAR-5 ovarian, more than 100 µM; with UO-31 renal, more than 92.6 µM.
`O=C(O)CC1NCc2cc3ccccc3nc21` (configuration not stated): the TGI in the experiment with A549 NSCLC, in the experiment with ACHN renal, in the experiment with SK-MEL-2 melanoma, in the experiment with HT29 colon, in the experiment with SK-OV-3 ovarian and in the experiment with NCI-H522 lung was more than 100 µM in each case. The TGI with TK-10 renal, with SNB-75 CNS, in the experiment on OVCAR-5 ovarian and in the experiment on UO-31 renal was more than 100 µM in each case.
With `COc1ccc2cc(CN3CCC(C4CCNCC4)CC3)ccc2c1`, the TGI was 36.8 µM in the experiment with A549 NSCLC; 11.9 µM with ACHN renal; 3.81 µM with SK-MEL-2 melanoma; 2.65 µM with HT29 colon; 23.4 µM in the experiment on SK-OV-3 ovarian; 4.54 µM in the experiment on NCI-H522 lung. The TGI turned out to be 21.3 µM in the experiment with TK-10 renal, 5.95 µM in the experiment with SNB-75 CNS, 20.4 µM in the experiment with OVCAR-5 ovarian and 6.29 µM with UO-31 renal.
Take `COC(=O)c1cnc(Cl)cn1`: the TGI in the experiment on A549 NSCLC was more than 100 µM; in the experiment on ACHN renal, more than 100 µM; in the experiment with SK-MEL-2 melanoma, more than 100 µM; with HT29 colon, more than 100 µM; in the experiment with SK-OV-3 ovarian, more than 100 µM; in the experiment with NCI-H522 lung it was 5.33 µM. Besides, the TGI is more than 100 µM with TK-10 renal, more than 100 µM in the experiment on SNB-75 CNS, more than 100 µM with OVCAR-5 ovarian and 36.9 µM in the experiment on UO-31 renal.
As for `CC(C)(C)C(=O)OC12/C(=N/O)CCCCCC1c1ccccc12` (configuration not stated), the TGI stood at 31.6 µM in the experiment with A549 NSCLC; 31.8 µM in the experiment on ACHN renal; 37.3 µM in the experiment on SK-MEL-2 melanoma; 26 µM in the experiment on HT29 colon; 33.6 µM with SK-OV-3 ovarian; 35 µM with NCI-H522 lung. The TGI was 30.1 µM in the experiment with TK-10 renal, 27.8 µM in the experiment with SNB-75 CNS, 28.7 µM in the experiment with OVCAR-5 ovarian and 31.7 µM in the experiment on UO-31 renal.
Consider `CC(=O)OCC1OC(Oc2cc(C)c(O)cc2C/C=C(\C)CC/C=C(\C)CC(=O)CC(C)C)C(O)C(OC(C)=O)C1OC(C)=O` (configuration not stated), for which the TGI with A549 NSCLC is 20.3 µM; with ACHN renal, 44.9 µM; in the experiment with SK-MEL-2 melanoma, 26.6 µM; with HT29 colon it was 12.5 µM; in the experiment with SK-OV-3 ovarian, more than 50 µM; with NCI-H522 lung, more than 50 µM. Further, the TGI in the experiment with TK-10 renal is 41.1 µM; in the experiment on SNB-75 CNS it was more than 50 µM; with OVCAR-5 ovarian, more than 50 µM; in the experiment with UO-31 renal, 32 µM.
Regarding `CC1OC(OC2C(OC(=O)[C@]34CCC(C)(C)C[C@H]3C3=CC[C@@H]5[C@@]6(C)CC[C@H](OC7OC(C(=O)O)C(O)C(OC8OCC(O)C(O)C8O)C7O)C(C)(C)[C@@H]6CC[C@@]5(C)[C@]3(C)CC4)OCC(O)C2O)C(O)C(OC2OCC(O)C(O)C2O)C1OC1OCC(O)C(OC2OCC(O)C(O)C2O)C1O` (some centres not stated), the GI50 was 5.06 µM and 14.3 µM in the experiment on A549 NSCLC; 6.31 µM and 17.3 µM in the experiment on SK-MEL-2 melanoma; 4.28 µM and 11.9 µM in the experiment with HT29 colon; 15.4 µM and 37.2 µM in the experiment on SK-OV-3 ovarian; 2.53 µM and 12.3 µM with NCI-H522 lung; 7.26 µM and 17.7 µM with OVCAR-5 ovarian. In addition, the GI50 with UO-31 renal was 2.12 µM and 9 µM. Further, the TGI in the experiment with A549 NSCLC was 16.9 µM and 28.4 µM; in the experiment with ACHN renal, 19.6 µM and 25.1 µM; with SK-MEL-2 melanoma, 14.5 µM and 34.2 µM; with HT29 colon it was 15 µM and 24.2 µM; with SK-OV-3 ovarian, 33.7 µM and > 100 µM; in the experiment with NCI-H522 lung, 7.93 µM and 25.9 µM. The TGI with TK-10 renal was 24 µM; in the experiment on SNB-75 CNS, 29.8 µM and 39.3 µM; in the experiment on OVCAR-5 ovarian it was 20.3 µM and 32.4 µM; with UO-31 renal, 4.99 µM and 21.1 µM.
With `CCCCCCCCCCCCOCCCOP(=O)([O-])OCC[N+](C)(C)C`, the TGI is more than 100 µM with A549 NSCLC; more than 80.2 µM in the experiment with ACHN renal; more than 100 µM with SK-MEL-2 melanoma; 61.7 µM in the experiment with HT29 colon; more than 100 µM with SK-OV-3 ovarian; 68.3 µM in the experiment on NCI-H522 lung. Also, the TGI with TK-10 renal is 14.9 µM; with SNB-75 CNS it was 71.1 µM; in the experiment on OVCAR-5 ovarian it was more than 100 µM; with UO-31 renal, more than 89.5 µM.
Regarding `c1c[nH]c(C23C4C5C6C4C2C6C53)n1` (configuration not stated), the TGI with A549 NSCLC, in the experiment with ACHN renal, in the experiment on SK-MEL-2 melanoma, in the experiment with HT29 colon, with SK-OV-3 ovarian and in the experiment on NCI-H522 lung was more than 100 µM throughout. Further, the TGI in the experiment on TK-10 renal, with SNB-75 CNS, in the experiment with OVCAR-5 ovarian and in the experiment with UO-31 renal was more than 100 µM in each case.
Take `CCOC(=O)C(Cc1cccn1C(=O)OC(C)(C)C)[N+](=O)[O-]` (configuration not stated): the TGI in the experiment with A549 NSCLC was more than 100 µM; in the experiment on ACHN renal, 47.5 µM; with SK-MEL-2 melanoma, 53.9 µM; with HT29 colon it was 50.3 µM; in the experiment with SK-OV-3 ovarian, more than 100 µM; in the experiment on NCI-H522 lung, 40.8 µM. Also, the TGI in the experiment with TK-10 renal was determined as 50.3 µM; with SNB-75 CNS, 54.9 µM; in the experiment with OVCAR-5 ovarian, 63.2 µM; with UO-31 renal it was 39.3 µM.
With `Oc1ccc(Cl)cc1CN1CCN(Cc2cc(Cl)ccc2O)C1`, the TGI in the experiment with A549 NSCLC was determined as 9.85 µM; in the experiment on ACHN renal, 4.25 µM; in the experiment on SK-MEL-2 melanoma, 4.45 µM; in the experiment with HT29 colon, 13 µM; with SK-OV-3 ovarian, 13.3 µM; with NCI-H522 lung, 13.2 µM. For the same compound, the TGI turned out to be 9.69 µM in the experiment with TK-10 renal, 7.59 µM in the experiment with SNB-75 CNS, 16.9 µM with OVCAR-5 ovarian and 2.19 µM with UO-31 renal.
Consider `O=C(N/N=C1/C(=O)c2c3ccccc3cc3cccc1c23)c1ccccc1`, for which the TGI was more than 100 µM with A549 NSCLC; more than 67.4 µM with ACHN renal; more than 94 µM with SK-MEL-2 melanoma; more than 87.9 µM with HT29 colon; 75 µM in the experiment on SK-OV-3 ovarian; more than 100 µM in the experiment with NCI-H522 lung. In addition, the TGI in the experiment with TK-10 renal was 78.5 µM; in the experiment with SNB-75 CNS, 74.9 µM; in the experiment with OVCAR-5 ovarian, more than 100 µM; with UO-31 renal it was more than 100 µM.
